Experiment [1] relates to MYB mRNA. The experiment can be described thus: RT-qPCR splicing assay, MYB canonical junction (CJ) and alternative junction (AJ) mRNA. The format is cell-based, human. Conditions: Homo sapiens; for AC50: increase in MYB alternative junction (AJ) mRNA, read-out: MYB AJ AC50. In short, it runs like this:
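A673 cells (normalized to PPIA) or K562 cells (normalized to GAPDH or GUSB) were treated 24 h at 37 °C with an 11-point 3-fold dilution series, top 10 uM, DMSO ≤0.25%. Cell lysates went to one-step RT-qPCR measuring canonical- and alternative-junction MYB or HTT transcripts.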
For orientation: Real-time PCR tracks product formation cycle by cycle.

Experiment [2] deals with HTT. Kind of experiment: HiBiT protein abundance assay, HTT HiBiT K562 cell line. Type of experiment: cell-based, human. As to conditions: HiBiT K562 cell line, 24 hours, top dose 10 μM; read-out: Effect on protein abundance, HTT (IC50 category). The method, boiled down:
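K562 knock-in lines with endogenous HiBiT-tagged target, 10,000 cells/well in IMDM + FBS, treated 24 h at 37° C with 10-point 3-fold dilutions (top 10 μM final; DMSO ≤0.25%). Lytic Nano-Glo HiBiT luminescence normalized to untagged K562 baseline and DMSO controls; IC50 = concentration giving 50% abundance via four-parameter fit.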

Where [3] appears, read: Table 5 panel, canonical junction qPCR, compound concentration having 50% response in CJ decrease, read-out: MYB IC50 (decrease in CJ mRNA levels).
Where [4] appears, read: decrease in MYB canonical junction (CJ) mRNA, RT-qPCR, read-out: MYB CJ IC50.

Among the data in patent US20250332173A1, “COMPOUNDS AND METHODS FOR MODULATING NUCLEIC ACID SPLICING” (REMIX THERAPEUTICS INC., priority 2021, published 2025) are IC50 and AC50 values, retold here.

Broadly, the IC50 is the concentration that gives 50% inhibition. One may read the AC50 as the concentration at which the activity in the assay is half-maximal.

Like-named read-outs stand apart in the source and are kept apart here. Where only a bound is given, the exact number is not on record here.

Take `Cc1cn2cc(-c3cc(F)c4c(=O)n([C@@H]5CCNC5)ccc4c3)cc(F)c2n1` (single isomer, unassigned) [Compound 395]: the values for the concentration for half-maximal inhibition (IC50) in experiment [1] (setting [3]), in experiment [1] (setting [4]) and in experiment [2] were below 0.1 µM, 0.1 to 1 µM and 0.1 to 1 µM, respectively. In addition, the AC50 in experiment [1] (RT-qPCR) is below 0.1 µM.
`Cc1cn2cc(-c3cc(F)c4c(=O)n([C@H]5CCNC5)ccc4c3)cc(F)c2n1` (single isomer, unassigned) [Compound 396]: the IC50 in experiment [1] (setting [3]) was below 0.1 µM; in experiment [1] (setting [4]) it was below 0.1 µM; in experiment [2], 0.1 to 1 µM. In addition, in experiment [1] (RT-qPCR), the AC50 is below 0.1 µM.
On to `Cc1cn2cc(-c3ccc4c(=O)n([C@@H]5CCCNC5)ccc4c3)cc(F)c2n1` (single isomer, unassigned) [Compound 403], for which the IC50 in experiment [1] (setting [3]) fell in the range of 1 to 10 µM; in experiment [1] (setting [4]), 0.1 to 1 µM; in experiment [2] it was 1 to 10 µM. In experiment [1] (RT-qPCR), the concentration at half-maximal activity (AC50) was in the range of 1 to 10 µM.
In the case of `Cc1cn2nc(-c3cc(F)c4c(=O)n([C@@H]5CCNC6(CC6)C5)ccc4c3)cc(C)c2n1` (single isomer, unassigned) [Compound 425], the IC50 in experiment [1] (setting [3]), in experiment [1] (setting [4]) and in experiment [2] was below 0.1 µM throughout. Further, the AC50 in experiment [1] (RT-qPCR) was below 0.1 µM.
With `Cc1cn2nc(-c3cc(F)c4c(=O)n([C@H]5CCNC6(CC6)C5)ccc4c3)cc(C)c2n1` (single isomer, unassigned) [Compound 426], the IC50 in experiment [1] (setting [3]), in experiment [1] (setting [4]) and in experiment [2] was below 0.1 µM in each case. Further, the AC50 in experiment [1] (RT-qPCR) is below 0.1 µM.
`Cc1cn2nc(-c3ccc4c(=O)n([C@@H]5CCNC6(CC6)C5)ncc4c3)cc(C)c2n1` (stereo in doubt) [Compound 368, 2-[(7R)-4-azaspiro[2.5]octan-7-yl]-6-{2,8-dimethylimidazo[1,2-b]pyridazin-6-yl}phthalazin-1-one]: the IC50 in experiment [1] (setting [3]) is 0.1 to 1 µM; in experiment [1] (setting [4]), 0.1 to 1 µM; in experiment [2], below 0.1 µM. Moreover, in experiment [1] (RT-qPCR), the AC50 lay within 0.1 to 1 µM.
As for `Cc1cn2nc(-c3cc(F)c4c(=O)n(C5CCNC5)ccc4c3)cc(C)c2n1` (stereo in doubt) [Compound 382, (R)-6-(2,8-dimethylimidazo[1,2-b]pyridazin-6-yl)-8-fluoro-2-(pyrrolidin-3-yl)isoquinolin-1(2H)-one], the IC50 was below 0.1 µM in experiment [1] (setting [3]), 0.1 to 1 µM in experiment [1] (setting [4]) and 1 to 10 µM in experiment [2]. Further, the AC50 in experiment [1] (RT-qPCR) was below 0.1 µM.
For `Cc1cn2nc(-c3cc(F)c4c(=O)n(C5CCNC5)ccc4c3)cc(C)c2n1` (stereo in doubt) [Compound 392, (S)-6-(2,8-dimethylimidazo[1,2-b]pyridazin-6-yl)-8-fluoro-2-(pyrrolidin-3-yl)isoquinolin-1(2H)-one], the IC50 in experiment [1] (setting [3]) is below 0.1 µM; in experiment [1] (setting [4]) it was below 0.1 µM; in experiment [2], 1 to 10 µM. Besides, the concentration at half-maximal activity (AC50) in experiment [1] (RT-qPCR) is below 0.1 µM.
With `Cc1cn2nc(-c3cc(C)c4c(=O)n(C5CCNC6(CC6)C5)ccc4c3)cc(C)c2n1` (stereo in doubt) [Compound 397, (S)-6-(2,8-dimethylimidazo[1,2-b]pyridazin-6-yl)-8-methyl-2-(4-azaspiro[2.5]octan-7-yl)isoquinolin-1(2H)-one], the IC50 in experiment [1] (setting [3]) was 0.1 to 1 µM; in experiment [1] (setting [4]), below 0.1 µM; in experiment [2], below 0.1 µM. Besides, in experiment [1] (RT-qPCR), the AC50 lay in the range of 0.1 to 1 µM.
Turning to `Cc1cn2nc(-c3cc(C)c4c(=O)n(C5CCNC6(CC6)C5)ccc4c3)cc(C)c2n1` (stereo in doubt) [Compound 398, (R)-6-(2,8-dimethylimidazo[1,2-b]pyridazin-6-yl)-8-methyl-2-(4-azaspiro[2.5]octan-7-yl)isoquinolin-1(2H)-one], the IC50 in experiment [1] (setting [3]), in experiment [1] (setting [4]) and in experiment [2] was below 0.1 µM throughout. The AC50 in experiment [1] (RT-qPCR) was below 0.1 µM.
As for `Cc1cn2nc(-c3ccc4c(=O)n(C5CCCNC5)ccc4c3)cc(C)c2n1` (stereo in doubt) [Compound 410, 6-{2,8-dimethylimidazo[1,2-b]pyridazin-6-yl}-2-[(3S)-piperidin-3-yl]isoquinolin-1-one], the IC50 in experiment [1] (setting [3]), in experiment [1] (setting [4]) and in experiment [2] was 0.1 to 1 µM in each case. For the same compound, the AC50 in experiment [1] (RT-qPCR) lay in the range of 0.1 to 1 µM.
`Cc1cn2nc(-c3ccc4c(=O)n(C5CCCNC5)ccc4c3)cc(C)c2n1` (stereo in doubt) [Compound 411, 6-{2,8-dimethylimidazo[1,2-b]pyridazin-6-yl}-2-[(3R)-piperidin-3-yl]isoquinolin-1-one]: the IC50 in experiment [1] (setting [3]), in experiment [1] (setting [4]) and in experiment [2] was 1 to 10 µM throughout. Besides, the AC50 in experiment [1] (RT-qPCR) lay within 1 to 10 µM.
In the case of `Cc1cn2cc(-c3cc(F)c4c(=O)n(C5CCOC5)cnc4c3)cc(C#N)c2n1` (stereo in doubt) [Compound 499, (R)-6-(5-fluoro-4-oxo-3-(tetrahydrofuran-3-yl)-3,4-dihydroquinazolin-7-yl)-2-methylimidazo[1,2-a]pyridine-8-carbonitrile], the IC50 in experiment [1] (setting [3]), in experiment [1] (setting [4]) and in experiment [2] was 0.1 to 1 µM throughout. Further, the AC50 in experiment [1] (RT-qPCR) was 0.1 to 1 µM.
For `Cc1cn2cc(-c3cc(F)c4c(=O)n(C5CCOC5)cnc4c3)cc(C#N)c2n1` (stereo in doubt) [Compound 500, (S)-6-(5-fluoro-4-oxo-3-(tetrahydrofuran-3-yl)-3,4-dihydroquinazolin-7-yl)-2-methylimidazo[1,2-a]pyridine-8-carbonitrile], the half-inhibitory concentration (IC50) in experiment [1] (setting [3]), in experiment [1] (setting [4]) and in experiment [2] was 0.1 to 1 µM each time. The AC50 in experiment [1] (RT-qPCR) is 0.1 to 1 µM.
For `Cn1cc2cc(-n3cnc4cc(C5=CC6CCC(C5)N6)ccc4c3=O)ccc2n1` (stereo not drawn) [Compound 160], the IC50 in experiment [1] (setting [3]), in experiment [1] (setting [4]) and in experiment [2] was above 10 µM throughout. Besides, in experiment [1] (RT-qPCR), the half-maximal activity concentration (AC50) was above 10 µM.
As to `CN1C2C=C(c3ccc4c(=O)n(-c5ccc6nn(C)cc6c5)cnc4c3)CC1CC2` (stereo not drawn) [Compound 161], the IC50 in experiment [1] (setting [3]), in experiment [1] (setting [4]) and in experiment [2] was above 10 µM in each case. For the same compound, the half-maximal activity concentration (AC50) in experiment [1] (RT-qPCR) is above 10 µM.
With `Cn1cc2cc(-n3cnc4cc(NC5CCNCC5)ccc4c3=O)ccc2n1` [Compound 162], the IC50 in experiment [1] (setting [3]), in experiment [1] (setting [4]) and in experiment [2] was above 10 µM in each case. Further, the AC50 in experiment [1] (RT-qPCR) is above 10 µM.
Consider `CN1CCC(Nc2ccc3c(=O)n(-c4ccc5nn(C)cc5c4)cnc3c2)CC1` [Compound 163], for which the IC50 is 1 to 10 µM in experiment [1] (setting [3]), above 10 µM in experiment [1] (setting [4]) and above 10 µM in experiment [2]. Further, the AC50 in experiment [1] (RT-qPCR) was 1 to 10 µM.
`Cn1cc2cc(-n3cnc4cc(C5CCNCC5)ccc4c3=O)ccc2n1` [Compound 172]: the IC50 in experiment [1] (setting [3]), in experiment [1] (setting [4]) and in experiment [2] was above 10 µM each time. Besides, in experiment [1] (RT-qPCR), the AC50 was above 10 µM.
As for `Cc1cc(-c2ccc3c(=O)n(C4CCN(C)CC4)cnc3n2)cc2cn(C)nc12` [Compound 173], the IC50 in experiment [1] (setting [3]), in experiment [1] (setting [4]) and in experiment [2] was above 10 µM each time. The AC50 in experiment [1] (RT-qPCR) is above 10 µM.
Turning to `Cc1cc(-c2ccc3c(=O)n(C4CCNCC4)cnc3c2)cc2cn(C)nc12` [Compound 174], the IC50 in experiment [1] (setting [3]), in experiment [1] (setting [4]) and in experiment [2] was 0.1 to 1 µM each time. Besides, the AC50 in experiment [1] (RT-qPCR) was in the range of 0.1 to 1 µM.
